The record followed here is PMC8151276, “An Integrated Approach toward NanoBRET Tracers for Analysis of GPCR Ligand Engagement” (Molecules, 2021).

Common to all, as to assay type: binding
One assay has as its target T1, P2RY2 (Homo sapiens, UniProt P41231).
T1 construct: purchased Promega (in-house HiBiT-GPCR construct library, NanoBRET)
The assay is described as follows: NanoBRET screen HiBiT-P2RY2 in HEK293. The method, then:
(§1) Each tracer candidate was screened across the entire library of HiBiT-GPCR constructs using NanoBRET as the detection modality. As depicted in Figure 4A, the specificity of interactions was evaluated through decrease in BRET due to competitive displacement of a bound tracer by excess parental compound. Each tracer was analyzed for binding to each HiBiT-GPCR fusion in the absence and in the presence of competing parental compound. Briefly, HEK293 cells were transfected with HiBiT-GPCR constructs diluted into promoterless DNA to reduce expression and maximize translocation to the cell surface. Each tracer candidate was then screened at concentrations of 1 μM and 0.1 μM across cells expressing these fusions. Cells were treated for 1.5 h with tracer either alone or in the presence of 20 μM competing parental compound (i.e., control). BRET was measured upon addition of purified LgBiT and subsequent complementation with HiBiT genetically fused to a GPCR. The specificity of interactions was assessed through a decrease in BRET signal due to competitive displacement of the bound tracer. To further gauge the robustness of these interactions, the fold response over the control (i.e., BRETtracer/BRETcontrol) was calculated. We chose a 1.5-fold response, which translates to ≥7-fold signal over noise as the minimal threshold required to score an interaction as positive. […]. Below we highlight the screening results obtained for our exemplary fluorescent tracers based on Clozapine, Amitriptyline and AZD1283.
(§2) HiBiT-GPCR DNA constructs were diluted in 10 mM Tris pH 8 to a final concentration of 0.01 μg/μL, arrayed in 96-well plates and stored at −20 °C. For transfection, HEK293 cells were suspended in Opti-MEM (without phenol red) supplemented with 2% fetal bovine serum (Seradigm) and 100 units/mL penicillin–streptomycin (Gibco) at a final concentration of 220,000 cells/mL and dispensed into white 96-well plates at 90 μL/well. Subsequent transfections and screens were carried using an Agilent Bravo Automated Liquid Handling Platform. First, the 96-well HiBiT DNA arrays were diluted 25-fold in Opti-MEM (without serum or phenol red) to a final concentration of 0.0004 μg/μL and 20 μL of the diluted DNAs were transferred into new 96-well plates. Next, promoterless carrier DNA (1 μg/μL) was diluted 25-fold (0.04 μg/μL) and then dispensed into the diluted arrays at 20 μL/well. Following brief mixing, Viafect transfection reagent (Promega) diluted 16-fold into Opti-MEM was dispensed into the plates at 40 μL/well. After mixing by pipetting, plates were incubated for 10 min on the pipetting station deck. The DNA-transfection reagent complexes were then added to plates containing cells. To facilitate the screen, 10 μL of DNA-transfection reagent complexes were added in duplicates to the top 4 and bottom 4 rows, resulting in two identical 48-well arrays per plate. Plates with transfected cells were incubated for 18–20 h at 37 °C/5% CO2. A screen of each tracer across the entire library using two different concentrations requires duplicate plates of transfected cells. Depending on the number of tracers being screened, transfections can be scaled up using the same ratios. The next day, for each tracer, four 20× screening solutions in tracer dilution buffer (Promega) were prepared: two duplicates at final concentration of 20 μM and two duplicates at a final concentration of 2 μM. A competing unmodified compound was added to one of each duplicate at a final concentration of 400 μM. The four resulting solutions were diluted 4-fold in Opti-MEM without serum or phenol red to generate 5× solutions (5 µM and 0.5 µM tracer +/− 100 μM competing compound). To screen the library, a BioTek MultiFlo FX liquid dispenser was used to dispense 22.5 µL of tracer solution to the top 4 rows and 22.5 µL tracer + competing compound solution to the 4 bottom rows. Plates were briefly mixed on an orbital shaker and incubated for 1.5 h at room temperature. […]
For orientation: Bioluminescence resonance energy transfer reports proximity on the nanometre scale.

A further assay deals with T2, PTGER3 (Homo sapiens, UniProt P43115).
T2 construct: purchased Promega (in-house HiBiT-GPCR construct library, NanoBRET)
T2 sequence (P43115 1-390): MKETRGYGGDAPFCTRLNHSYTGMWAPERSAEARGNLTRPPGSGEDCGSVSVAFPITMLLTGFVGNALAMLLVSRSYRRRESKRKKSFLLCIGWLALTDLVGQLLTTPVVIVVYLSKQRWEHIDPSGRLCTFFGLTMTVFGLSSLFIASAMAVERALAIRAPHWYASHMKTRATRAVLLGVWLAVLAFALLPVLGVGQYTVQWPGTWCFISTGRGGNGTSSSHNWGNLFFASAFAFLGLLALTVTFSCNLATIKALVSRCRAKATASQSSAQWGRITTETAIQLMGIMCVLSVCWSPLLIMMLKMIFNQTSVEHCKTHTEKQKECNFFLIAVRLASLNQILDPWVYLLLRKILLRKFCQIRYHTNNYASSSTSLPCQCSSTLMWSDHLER
Description: NanoBRET screen HiBiT-PTGER3 in HEK293. The protocol:
as §1, §2

In the next assay the target is T3, GRPR (Homo sapiens, UniProt P30550).
T3 construct: purchased Promega (in-house HiBiT-GPCR construct library, NanoBRET)
Description: NanoBRET screen HiBiT-GRPR in HEK293. The protocol:
as §1, §2

T3 sequence (P30550 whole entry): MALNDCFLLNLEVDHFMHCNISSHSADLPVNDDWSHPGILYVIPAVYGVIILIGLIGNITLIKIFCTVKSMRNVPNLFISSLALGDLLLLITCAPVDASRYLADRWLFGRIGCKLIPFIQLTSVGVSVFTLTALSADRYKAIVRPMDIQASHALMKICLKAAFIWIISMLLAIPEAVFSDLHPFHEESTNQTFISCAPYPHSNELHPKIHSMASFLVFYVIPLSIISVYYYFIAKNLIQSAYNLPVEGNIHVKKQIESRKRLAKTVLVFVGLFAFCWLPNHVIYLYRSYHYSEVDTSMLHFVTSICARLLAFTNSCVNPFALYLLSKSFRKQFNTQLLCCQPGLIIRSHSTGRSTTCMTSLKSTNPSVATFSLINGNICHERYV
T1 sequence (P41231 whole entry): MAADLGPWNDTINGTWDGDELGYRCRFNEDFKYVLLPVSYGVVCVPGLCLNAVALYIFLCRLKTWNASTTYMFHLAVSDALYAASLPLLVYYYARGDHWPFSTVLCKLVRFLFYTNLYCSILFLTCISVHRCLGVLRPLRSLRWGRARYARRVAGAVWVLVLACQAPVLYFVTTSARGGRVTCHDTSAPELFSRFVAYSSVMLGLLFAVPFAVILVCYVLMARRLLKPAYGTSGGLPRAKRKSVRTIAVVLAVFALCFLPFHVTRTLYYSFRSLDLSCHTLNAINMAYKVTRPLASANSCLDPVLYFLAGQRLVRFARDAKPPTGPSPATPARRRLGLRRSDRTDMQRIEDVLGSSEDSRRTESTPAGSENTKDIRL

For the compound `O=C(CCOCCOCCOCCOCCNC(=O)CCc1ccc2n1[B-](F)(F)[N+]1=C(c3ccc[nH]3)C=CC1=C2)NCCCN1CCN(C2=Nc3ccccc3Oc3ccc(Cl)cc32)CC1` [Loxapine-a-2-NB590], the “NanoBRET Fold Response” value turned out to be 0.99 on P2RY2 (P2RY2, tracer 0.1μM); 1.05 at P2RY2 (P2RY2, tracer 1μM); 0.98 on PTGER3 (PTGER3, tracer 0.1μM); 0.98 on PTGER3 (PTGER3, tracer 1μM); 1.17 at GRPR (GRPR, tracer 0.1μM); 1.09 at GRPR (GRPR, tracer 1μM).

Turning to `CCCn1c(=O)c2[nH]c(-c3ccc(OCC(=O)NCCNC(=O)CCOCCNC(=O)c4ccc(CNC(=O)CCc5ccc6n5[B-](F)(F)[N+]5=C(c7ccc[nH]7)C=CC5=C6)cc4)cc3)nc2n(CCC)c1=O` [XAC-3-NB590], the “NanoBRET Fold Response” value at P2RY2 (P2RY2, tracer 0.1μM) amounted to 0.96; on P2RY2 (P2RY2, tracer 1μM) it was 0.95; on PTGER3 (PTGER3, tracer 0.1μM) it was 0.97; on PTGER3 (PTGER3, tracer 1μM) it was 1.05; at GRPR (GRPR, tracer 0.1μM) it was 1.24; at GRPR (GRPR, tracer 1μM), 1.01.

As to `CN(C)CCC=C1c2ccccc2CCc2ccc(C(=O)NCCNC(=O)CCOCCOCCOCCOCCNC(=O)CCc3ccc4n3[B-](F)(F)[N+]3=C(c5ccc[nH]5)C=CC3=C4)cc21` [Amitriptyline-a-2-NB590], the “NanoBRET Fold Response” value is recorded as 1.00 at P2RY2 (tracer at 0.1μM), 1.05 on P2RY2 (tracer at 1μM), 1.12 on GRPR (tracer at 0.1μM) and 0.98 at GRPR (tracer at 1μM).

For `COc1ccccc1N1CCN(CCCCN2C(=O)c3ccc(CNC(=O)CCOCCOCCOCCOCCNC(=O)CCc4ccc5n4[B-](F)(F)[N+]4=C(c6ccc[nH]6)C=CC4=C5)cc3C2=O)CC1` [NAN-190-2-NB590], the “NanoBRET Fold Response” value at PTGER3 (PTGER3, tracer 0.1μM) is 1.00; on PTGER3 (PTGER3, tracer 1μM), 1.02; on GRPR (GRPR, tracer 0.1μM), 0.99; at GRPR (GRPR, tracer 1μM), 0.92.

Regarding `O=C(CCc1ccc2n1[B-](F)(F)[N+]1=C(c3ccc[nH]3)C=CC1=C2)NCc1ccc(C(=O)NCCOCCOCCNCC(O)COc2cccc3ccccc23)cc1` (stereo not drawn) [Propranolol-3-NB590], the “NanoBRET Fold Response” value came to 1.07 on P2RY2 (P2RY2, 0.1μM); 1.03 on P2RY2 (P2RY2, 1μM); 1.04 at PTGER3 (PTGER3, 0.1μM); 1.08 on PTGER3 (PTGER3, 1μM); 0.99 on GRPR (GRPR, 0.1μM); 1.03 at GRPR (GRPR, 1μM).

Turning to `COc1ccccc1N1CCN(CCCCN2C(=O)c3ccc(CNC(=O)CCOCCNC(=O)c4ccc(CNC(=O)CCc5ccc6n5[B-](F)(F)[N+]5=C(c7ccc[nH]7)C=CC5=C6)cc4)cc3C2=O)CC1` [NAN-190-3-NB590], the “NanoBRET Fold Response” value on P2RY2 (P2RY2, tracer 0.1μM) was 1.00; on P2RY2 (P2RY2, tracer 1μM), 1.01; at PTGER3 (PTGER3, tracer 0.1μM), 0.99; on PTGER3 (PTGER3, tracer 1μM), 0.64; at GRPR (GRPR, tracer 0.1μM), 0.87; on GRPR (GRPR, tracer 1μM), 0.94.

Regarding `O=C(CCc1ccc2n1[B-](F)(F)[N+]1=C(c3ccc[nH]3)C=CC1=C2)NCc1ccc(C(=O)NCCOCCC(=O)N[C@@H]2CC[C@@]3(O)[C@H]4Cc5ccc(O)c6c5[C@@]3(CCN4CC3CC3)[C@H]2O6)cc1` [Naltrexone-3-NB590], the “NanoBRET Fold Response” value at P2RY2 (P2RY2, tracer 0.1μM) turned out to be 0.90; at P2RY2 (P2RY2, tracer 1μM), 1.10; at PTGER3 (PTGER3, tracer 0.1μM), 0.94; on PTGER3 (PTGER3, tracer 1μM), 0.79; on GRPR (GRPR, tracer 0.1μM) it was 0.91; at GRPR (GRPR, tracer 1μM), 0.92.

With `CCOC(=O)c1cc(C#N)c(N2CCC(C(=O)NS(=O)(=O)Cc3ccccc3/C=C/C(=O)NCCNC(=O)CCc3ccc4n3[B-](F)(F)[N+]3=C(c5ccc[nH]5)C=CC3=C4)CC2)nc1C` [AZD1283-1-NB590], the “NanoBRET Fold Response” value on P2RY2 (P2RY2, 0.1μM) amounted to 1.08; at P2RY2 (P2RY2, 1μM), 1.12; at PTGER3 (PTGER3, 0.1μM), 1.08; at PTGER3 (PTGER3, 1μM) it was 1.10; at GRPR (GRPR, 0.1μM), 1.01; at GRPR (GRPR, 1μM), 1.01.

On to `COc1ccc2[nH]c(-c3ccc(CNC(=O)CCOCCOCCOCCOCCNC(=O)CCc4ccc5n4[B-](F)(F)[N+]4=C(c6ccc[nH]6)C=CC4=C5)cc3)c(CCNC(C)=O)c2n1` [AzomelatoninICO9-2-NB590], for which the “NanoBRET Fold Response” value at P2RY2 (0.1μM tracer) was 1.06; at P2RY2 (1μM tracer), 1.09; on PTGER3 (0.1μM tracer) it was 1.04; at PTGER3 (1μM tracer), 1.20; at GRPR (0.1μM tracer), 0.84; at GRPR (1μM tracer), 1.22.

As to `CC(C)N(CC[C@H](c1ccccc1)c1cc(CCNC(=O)CCOCCOCCOCCOCCNC(=O)CCc2ccc3n2[B-](F)(F)[N+]2=C(c4ccc[nH]4)C=CC2=C3)ccc1O)C(C)C` [Tolterodine-2-NB590], the “NanoBRET Fold Response” value was found to be 1.06 on P2RY2 (P2RY2, tracer 0.1μM); 1.07 on P2RY2 (P2RY2, tracer 1μM); 1.14 at PTGER3 (PTGER3, tracer 0.1μM); 0.99 on PTGER3 (PTGER3, tracer 1μM); 0.89 at GRPR (GRPR, tracer 0.1μM); 0.91 on GRPR (GRPR, tracer 1μM).

In the case of `CN1CCN(C2=Nc3cc(Cl)ccc3N(CC(=O)NCCOCCOCCOCCOCCNC(=O)CCc3ccc4n3[B-](F)(F)[N+]3=C(c5ccc[nH]5)C=CC3=C4)c3ccccc32)CC1` [Clozapine-c-2-NB590], the “NanoBRET Fold Response” value turned out to be 0.99 on P2RY2 (P2RY2, 0.1μM tracer); 0.84 at P2RY2 (P2RY2, 1μM tracer); 1.00 on PTGER3 (PTGER3, 0.1μM tracer); 1.11 at PTGER3 (PTGER3, 1μM tracer); 1.01 at GRPR (GRPR, 0.1μM tracer); 0.99 at GRPR (GRPR, 1μM tracer).

With `N#CN=C(NCCCOc1cccc(CN2CCCCC2)c1)NCCNC(=O)CCOCCOCCOCCOCCNC(=O)CCc1ccc2n1[B-](F)(F)[N+]1=C(c3ccc[nH]3)C=CC1=C2` [Aminopotentidine-2-NB590], the “NanoBRET Fold Response” value at P2RY2 (P2RY2, tracer 0.1μM) is listed as 1.01; at P2RY2 (P2RY2, tracer 1μM), 1.00; at PTGER3 (PTGER3, tracer 0.1μM), 1.01; at PTGER3 (PTGER3, tracer 1μM), 1.01; at GRPR (GRPR, tracer 0.1μM), 1.08; on GRPR (GRPR, tracer 1μM), 0.98.

`COc1ccc2c(n1)c(CCNC(C)=O)cn2CCNC(=O)CCc1ccc2n1[B-](F)(F)[N+]1=C(c3ccc[nH]3)C=CC1=C2` [Azamelatonin-1-NB590]: the “NanoBRET Fold Response” value at P2RY2 (0.1μM tracer) worked out at 0.93; at P2RY2 (1μM tracer), 0.93; on PTGER3 (0.1μM tracer), 1.00; on PTGER3 (1μM tracer), 1.25; on GRPR (0.1μM tracer) it was 1.00; on GRPR (1μM tracer), 1.08.

As to `CN(CCC=C1c2ccccc2CCc2ccccc21)C(=O)CCOCCOCCOCCOCCNC(=O)CCc1ccc2n1[B-](F)(F)[N+]1=C(c3ccc[nH]3)C=CC1=C2` [Amitriptyline-e-2-NB590], the “NanoBRET Fold Response” value on P2RY2 (tracer at 1μM) is reported as 0.98.
